Results as given in patent EP0800503B1, “NOVEL TRIENOIC RETINOID COMPOUNDS AND METHODS” (LIGAND PHARMACEUTICALS, INC., priority 1994, dated 1996).
Read-outs that look alike come from different tables or passages of the source.

What was measured:
[1] = target: T1, RXRγ (Mus musculus, UniProt P28705); assay: Co-transfection assay; type: cell-based; conditions: read-out: RXRγ Pot
T1 sequence (P28705 1-463): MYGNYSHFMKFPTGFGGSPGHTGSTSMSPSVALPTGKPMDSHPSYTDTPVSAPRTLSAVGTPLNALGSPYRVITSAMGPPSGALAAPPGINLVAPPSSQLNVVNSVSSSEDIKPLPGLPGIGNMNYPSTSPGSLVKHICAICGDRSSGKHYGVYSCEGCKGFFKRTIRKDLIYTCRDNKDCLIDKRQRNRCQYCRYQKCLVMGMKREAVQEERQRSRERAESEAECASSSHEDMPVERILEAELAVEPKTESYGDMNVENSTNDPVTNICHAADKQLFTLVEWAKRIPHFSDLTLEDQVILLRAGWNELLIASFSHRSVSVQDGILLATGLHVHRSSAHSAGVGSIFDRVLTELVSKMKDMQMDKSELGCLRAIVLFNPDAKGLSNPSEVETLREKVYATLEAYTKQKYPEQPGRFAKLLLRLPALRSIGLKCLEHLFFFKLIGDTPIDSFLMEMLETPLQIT

[2] = test system: TPA induction of ODC; assay: Ornithine decarboxylase (ODC) assay, inhibition of TPA induction of ODC; type: cell-based; conditions: concentration required to inhibit the TPA induction of ODC by 80 percent
[3] = test system: AML-193 cell line; assay: Incorporation of 3H-thymidine; conditions: Homo sapiens, 96 h, read-out: TdR IC50 (nM)
[4] = target: T2, RARβ (Homo sapiens, UniProt P10826); assay: biochemical
T2 sequence (P10826 1-455): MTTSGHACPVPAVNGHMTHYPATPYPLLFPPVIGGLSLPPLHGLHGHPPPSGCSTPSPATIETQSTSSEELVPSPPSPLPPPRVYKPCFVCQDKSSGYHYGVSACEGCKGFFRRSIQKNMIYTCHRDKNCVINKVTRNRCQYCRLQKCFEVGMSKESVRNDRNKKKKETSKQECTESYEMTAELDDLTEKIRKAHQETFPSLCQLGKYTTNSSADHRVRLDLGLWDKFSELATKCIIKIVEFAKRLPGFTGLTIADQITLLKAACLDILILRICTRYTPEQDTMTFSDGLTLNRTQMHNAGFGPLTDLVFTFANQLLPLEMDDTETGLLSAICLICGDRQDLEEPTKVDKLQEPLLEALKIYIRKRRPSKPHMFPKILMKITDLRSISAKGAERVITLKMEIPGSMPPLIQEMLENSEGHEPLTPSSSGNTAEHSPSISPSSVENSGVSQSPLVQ

[5] = target: T1, RXRγ; assay: biochemical
[6] = target: T3, RARβ (Homo sapiens, UniProt P10826); assay: Co-transfection assay; type: cell-based; conditions: read-out: RARβ Pot
T3 sequence (P10826 1-448 isoform P10826-2): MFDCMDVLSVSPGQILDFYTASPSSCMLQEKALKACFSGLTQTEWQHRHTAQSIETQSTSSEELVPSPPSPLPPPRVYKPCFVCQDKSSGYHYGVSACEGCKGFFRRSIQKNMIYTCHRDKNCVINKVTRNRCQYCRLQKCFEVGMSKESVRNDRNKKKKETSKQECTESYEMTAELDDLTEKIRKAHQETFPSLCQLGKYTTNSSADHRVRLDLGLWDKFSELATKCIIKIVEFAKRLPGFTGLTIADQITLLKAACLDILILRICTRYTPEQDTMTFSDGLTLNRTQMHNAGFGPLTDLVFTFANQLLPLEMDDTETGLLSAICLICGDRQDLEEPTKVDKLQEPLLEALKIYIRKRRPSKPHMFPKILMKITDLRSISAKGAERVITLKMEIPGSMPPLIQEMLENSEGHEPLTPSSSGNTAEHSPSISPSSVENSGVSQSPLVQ

[7] = test system: ME 180 cell line; assay: Viability (tetrazolium dye, MTS); type: cell-based; conditions: Homo sapiens, 96 hours, mitochondrial function / viability
[8] = target: T4, RARα (Homo sapiens, UniProt P10276); assay: Receptor binding (competition with tritiated retinoids); conditions: from IC50 by Cheng-Prussof equation
T4 sequence (P10276 1-462): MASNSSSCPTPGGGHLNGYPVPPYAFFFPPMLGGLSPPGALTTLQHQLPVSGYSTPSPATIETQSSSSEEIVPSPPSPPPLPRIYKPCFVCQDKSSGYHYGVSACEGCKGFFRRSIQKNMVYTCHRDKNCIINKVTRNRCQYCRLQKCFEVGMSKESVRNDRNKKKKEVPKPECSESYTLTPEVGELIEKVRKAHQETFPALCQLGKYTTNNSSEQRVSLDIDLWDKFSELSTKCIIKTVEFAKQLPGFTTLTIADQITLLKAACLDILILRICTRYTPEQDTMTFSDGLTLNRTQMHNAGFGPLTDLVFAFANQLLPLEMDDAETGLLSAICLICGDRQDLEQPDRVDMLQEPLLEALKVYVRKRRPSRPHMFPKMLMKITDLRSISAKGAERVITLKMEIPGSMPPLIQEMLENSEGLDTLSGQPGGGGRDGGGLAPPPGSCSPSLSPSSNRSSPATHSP

[9] = target: T5, RXRα (Homo sapiens, UniProt P19793); assay: as above; conditions: from IC50 by Cheng-Prussof equation
T5 sequence (P19793 1-462): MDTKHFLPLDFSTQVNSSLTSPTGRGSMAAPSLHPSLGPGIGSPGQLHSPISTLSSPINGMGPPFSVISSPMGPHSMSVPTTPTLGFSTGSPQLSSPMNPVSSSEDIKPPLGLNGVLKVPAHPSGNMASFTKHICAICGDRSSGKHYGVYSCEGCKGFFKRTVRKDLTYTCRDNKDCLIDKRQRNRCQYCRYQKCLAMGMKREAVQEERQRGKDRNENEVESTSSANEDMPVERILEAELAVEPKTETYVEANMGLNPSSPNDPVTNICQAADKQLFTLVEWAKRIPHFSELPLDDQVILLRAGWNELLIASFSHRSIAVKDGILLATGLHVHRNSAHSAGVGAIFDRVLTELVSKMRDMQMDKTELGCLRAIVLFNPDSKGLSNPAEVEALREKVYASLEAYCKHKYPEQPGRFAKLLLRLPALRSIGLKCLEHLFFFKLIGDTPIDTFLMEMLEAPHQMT

[10] = test system: RPMI 8226 cell line; assay: Incorporation of 3H-thymidine; type: cell-based; conditions: Homo sapiens, 96 hours, radiolabeled thymidine incorporation, read-out: TdR IC50
[11] = target: T4, RARα; assay: Co-transfection assay; type: cell-based; conditions: read-out: RARα Pot
[12] = target: T5, RXRα; assay: Co-transfection assay; type: cell-based; conditions: read-out: RXRα Pot
[13] = test system: RPMI 8226 cell line; assay: Viability (tetrazolium dye, MTS); type: cell-based; conditions: Homo sapiens, 96 hours, mitochondrial function / viability
[14] = test system: ME 180 cell line; assay: Incorporation of 3H-thymidine; type: cell-based; conditions: Homo sapiens, 96 hours, radiolabeled thymidine incorporation, read-out: TdR IC50
[15] = test system: AML-193 cell line; assay: Viability (tetrazolium dye, MTS); type: cell-based; conditions: Homo sapiens, 96 hours, mitochondrial function / viability

| Compound | EC50 [1] [nM] | IC80 [2] [nM] | IC50 [3] [nM] | Kd [4] [nM] | Kd [5] [nM] | EC50 [6] [nM] | IC50 [7] [nM] | Kd [8] [nM] | Kd [9] [nM] | IC50 [10] [nM] | EC50 [11] [nM] | EC50 [12] [nM] | IC50 [13] [nM] | IC50 [14] [nM] | IC50 [15] [nM] | EC50 ([11]; CV-1 cells, pRShRARα, D-MTV-LUC reporter, 40 hours, potency = EC50) [nM] |
| --- | --- | --- | --- | --- | --- | --- | --- | --- | --- | --- | --- | --- | --- | --- | --- | --- |
| C/C(=C/C=C/C(C)=C/C(=O)O)c1cc(C(C)(C)C)cc(C(C)(C)C)c1 [Compound 10, (2E, 4E, 6Z)-7-(3,5-di-t-butylphenyl)-3-methylocta-2,4,6-trienoic acid] | 56 | 6.62 | 0.01 | 75 | 9 | 23 | 370 | 59 | 4 | 60 | 59 | 127 | 570 | 62 | 1000 | – |
| C/C(=C\c1ccc(C(=O)O)cc1)c1ccc2c(c1)C(C)(C)CCC2(C)C [TTNPB, (E)-4-[2-(5,6,7,8-tetrahydro-5,5,8,8-tetramethyl-2-napthalenyl)-1-propenyl]benzoic acid, reference compound] | – | 0.09 | 0.1 | – | – | – | 187 | – | – | 0.2 | – | – | 10 | 0.4 | 1000 | – |
| CC(/C=C/C=C(\C)c1cc(C(C)(C)C)cc(C(C)(C)C)c1)=C\C(=O)O [Compound 9, (2E, 4E, 6E)-7-(3,5-Di-t-butylphenyl)-3-methylocta-2,4,6-trienoic acid] | > 10000 | 0.93 | 0.1 | 2 | 496 | 1 | 1.3 | 1 | 270 | 0.3 | – | > 10000 | 253 | 0.1 | 1000 | 4 |
